Columns and labels:
[1] = target: T1, RAD52-RPA-Cy3-dT30-Cy5 complex (Homo sapiens, UniProt P43351); experiment: FRET-based RAD52 binding/wrapping of RPA-coated ssDNA
T1 construct: made in house
Text: The RPA-ssDNA complex is a physiologically relevant substrate for the RAD52-mediated strand annealing. […] RPA binds ssDNA with high affinity and extends the ssDNA to its contour length.
(§1) In all experiments, the FRET values for each data point were corrected for the effects of the compounds on the respective substrate in the absence of RAD52.

[2] = target: T2, RPA (Homo sapiens, UniProt P15927+P27694+P35244); experiment: WaterLOGSY NMR binding to RPA; conditions: 20-40 μM compound, 3.3 μM RPA
T2 construct: made in house
T2 sequence (P27694 whole entry): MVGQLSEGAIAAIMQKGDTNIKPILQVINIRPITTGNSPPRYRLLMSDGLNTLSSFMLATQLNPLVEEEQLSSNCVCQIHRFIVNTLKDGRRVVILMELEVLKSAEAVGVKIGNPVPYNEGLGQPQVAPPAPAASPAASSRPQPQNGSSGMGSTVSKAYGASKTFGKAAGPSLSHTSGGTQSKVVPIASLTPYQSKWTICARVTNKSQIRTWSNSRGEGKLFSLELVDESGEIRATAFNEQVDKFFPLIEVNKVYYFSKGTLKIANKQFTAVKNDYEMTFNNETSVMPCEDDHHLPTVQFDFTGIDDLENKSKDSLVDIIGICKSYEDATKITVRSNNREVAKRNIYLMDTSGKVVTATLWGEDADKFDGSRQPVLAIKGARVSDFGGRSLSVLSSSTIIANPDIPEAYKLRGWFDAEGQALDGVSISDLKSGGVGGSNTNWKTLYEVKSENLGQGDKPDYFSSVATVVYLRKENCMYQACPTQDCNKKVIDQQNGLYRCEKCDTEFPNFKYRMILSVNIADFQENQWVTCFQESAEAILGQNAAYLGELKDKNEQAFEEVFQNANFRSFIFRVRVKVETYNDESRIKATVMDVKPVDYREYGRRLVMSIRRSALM
T2 sequence (P15927 whole entry): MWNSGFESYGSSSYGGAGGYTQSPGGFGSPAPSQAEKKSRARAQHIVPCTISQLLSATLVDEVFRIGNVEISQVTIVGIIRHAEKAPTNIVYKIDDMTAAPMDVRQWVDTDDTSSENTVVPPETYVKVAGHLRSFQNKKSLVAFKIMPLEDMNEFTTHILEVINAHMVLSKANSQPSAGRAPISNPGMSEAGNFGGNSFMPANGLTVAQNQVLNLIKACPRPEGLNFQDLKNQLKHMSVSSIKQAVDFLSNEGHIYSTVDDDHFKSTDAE
T2 sequence (P35244 whole entry): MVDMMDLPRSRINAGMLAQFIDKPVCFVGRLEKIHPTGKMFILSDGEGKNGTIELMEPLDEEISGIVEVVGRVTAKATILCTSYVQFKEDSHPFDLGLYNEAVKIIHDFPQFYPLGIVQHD
Text: (§2) To confirm that the selected compounds bind RAD52, we employed water-ligand observation with gradient spectroscopy (WaterLOGSY), an NMR technique, which is based on transfer of magnetization from bulk water to the protein-bound compound of interest ([Dalvit et al., 2001], [2000]). In WaterLOGSY spectrum, if a compound binds to a protein, the compound will receive negative nuclear Overhauser effects (NOEs) due to the slow tumbling of the protein-compound complex, leading to a positive WaterLOGSY peak. […] Similarly, the binding of ‘6’to RAD52 is evident from the positive WaterLOGSY peaks that are clearly detected for this compound (Figure 3a).
(§3) Compound binding to RAD52 and RPA proteins was analyzed using water-ligand observation with gradient spectroscopy (WaterLOGSY) NMR experiments ([Dalvit et al., 2001], [2000]). The WaterLOGSY spectra of compounds in the presence of RAD52 or RPA were acquired using a water NOE mixing time of 1 s and a T2 relaxation filter of 50 ms just before data acquisition to suppress the broad signals derived from protein. The protein buffer used in the experiments contains 10 mM Tris-d11, 75 mM KCl, 0.25 mM EDTA, pH 7.5, and 10% D20. All NMR data were acquired on a Bruker Avance II 800 MHz NMR spectrometer equipped with a sensitive cryoprobe and recorded at 25°C. The ^1H chemical shifts were referenced to 2,2-dimethyl-2-silapentane-5-sulfonate (DSS). NMR spectra were processed using NMR Pipe ([Delaglio et al., 1995]) and analysed using NMR View ([Johnson and Blevins, 1994]).

[3] = target: T3, RAD52 (Homo sapiens, UniProt P43351); experiment: WaterLOGSY NMR binding to RAD52; conditions: 20-40 μM compound, 3.3 μM RAD52
T3 construct: made in house
T3 sequence (P43351 1-418): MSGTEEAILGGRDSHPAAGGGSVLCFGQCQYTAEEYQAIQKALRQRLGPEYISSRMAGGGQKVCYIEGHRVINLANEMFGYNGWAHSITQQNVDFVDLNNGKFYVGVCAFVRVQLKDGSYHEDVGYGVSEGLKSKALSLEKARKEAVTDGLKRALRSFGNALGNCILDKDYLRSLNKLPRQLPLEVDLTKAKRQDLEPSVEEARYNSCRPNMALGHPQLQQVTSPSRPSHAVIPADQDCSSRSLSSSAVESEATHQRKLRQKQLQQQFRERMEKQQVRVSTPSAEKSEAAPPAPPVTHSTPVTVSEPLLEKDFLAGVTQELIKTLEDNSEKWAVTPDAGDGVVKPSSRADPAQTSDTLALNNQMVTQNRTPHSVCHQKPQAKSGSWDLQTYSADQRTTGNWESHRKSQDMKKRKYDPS
Text: as §2, §3

[4] = target: T4, RAD52-ssDNA interaction (Homo sapiens, UniProt P43351); experiment: FRET-based ssDNA binding and wrapping assay (RAD52-Cy3-dT30-Cy5 complex); conditions: 1 nM Cy3-dT30-Cy5, 8 nM RAD52, 25°C; read-out: IC50 (DNA binding), ssDNA
T4 construct: made in house
T4 sequence (P43351 1-418): T3 sequence (P43351 1-418)
Protocol: We titrated increasing amounts of each compound into a cuvette containing preformed stoichiometric RAD52-Cy3-dT30-Cy5 complexes (1 nM Cy3-dT30-Cy5 and 8 nM RAD52). […] At each concentration of the compound, the FRET signal was adjusted for the change in Cy3 and Cy5 fluorescence in the presence of the compound, but in the absence of protein.
FRET-based ssDNA binding, dsDNA binding, and annealing assays were carried out as previously described ([Grimme et al., 2010]; [Grimme and Spies, 2011]) using Cary Eclipse spectrofluorimeter (Varian) at 25°C in buffer containing 30 mM Tris-Acetate pH7.5, 1 mM DTT, and 0.1 mg/mL BSA. Cy3 dye was excited at 530 nm and its emission was monitored at 565 nm. Emission of Cy5 acceptor fluorophore excited through the energy transfer from Cy3 donor is monitored at 660 nm simultaneously with emission of Cy3 dye. Both the excitation and the emission slit widths were set to 10 nm.
All experiments were performed in triplicates, and the data are shown as averages and standard deviations for three independent measurements. To remove possible experimental artifacts associated with chromogenic or fluorogenic compounds, as well as with the compounds that may quench or enhance Cy3 or Cy5 fluorescence, we also performed control titrations whereby we titrated each compound into 1 nM Cy3-dT30-Cy5 in the absence of RAD52. For each compound concentration we subtracted the difference in the FRET signal in the presence and absence of the compound from the respective FRET signal in the presence of RAD52. The FRET signal corrected for the compound fluorescence was calculated using the equation: FRETapp=4.2∗ICy5/4.2∗ICy5+ 1.7∗ICy3
as previously described ([Grimme et al., 2010]; [Grimme and Spies, 2011]) and plotted as a function of compound concentration and fitted to the following inhibition model” FRET([small molecule])=FRET0−FRETmin/1+10^(LogIC50−Log([small molecule])∗HillSlope),
where FRET0 is the initial FRET value of the RAD52-ssDNA complex in the absence of the compound and FRETmin is the FRET value at complete inhibition. FRET values were calculated as an average of three or more independent annealing reactions plotted against the concentration of the compound. Inhibition of the RAD52-dsDNA interaction was assayed in a similar experiments, except the stoichiometric complexes containing 1 nM molecules of Cy3-Oligo28-Cy5 duplex DNA and 10 nM RAD52.

[5] = target: T5, RPA-ssDNA interaction (Homo sapiens, UniProt P15927+P27694+P35244); experiment: FRET titration of the RPA-Cy3-dT30-Cy5 complex; format: binding; conditions: range of tested concentrations
T5 construct: made in house
T5 sequence (P27694 whole entry): as the sequence (P27694 whole entry) above
T5 sequence (P15927 whole entry): as the sequence (P15927 whole entry) above
T5 sequence (P35244 whole entry): as the sequence (P35244 whole entry) above
Text: In the cell, ssDNA is typically found in complex with Replication protein A (RPA), the major eukaryotic ssDNA-binding protein essential for DNA replication, repair and recombination ([Wold, 1997]; [Oakley and Patrick, 2010]; [Chen and Wold, 2014]). The RPA-ssDNA complex is a physiologically relevant substrate for the RAD52-mediated strand annealing. […] RPA binds ssDNA with high affinity and extends the ssDNA to its contour length. In our assays such an extension manifests as a distinct FRET state of ~0.3, which is readily distinguished from a FRET state of ~0.48 of free Cy3-dT30-Cy5 ssDNA, as well as ~0.63 FRET of the stoichiometric ssDNA-RPA-RAD52 complex (see Figure 2—figure supplement 1 and ([Grimme and Spies, 2011]) for details). […] Both, however, inhibited the RAD52 binding to and wrapping of RPA-coated ssDNA with IC50 values identical to those determined without RPA (Figure 2e and Figure 3e).
as §1

[6] = target: T6, RAD52-dsDNA interaction (Homo sapiens, UniProt P43351); experiment: FRET-based RAD52-dsDNA binding assay; conditions: 1 nM dsDNA, 10 nM RAD52
T6 construct: made in house
T6 sequence (P43351 1-418): T3 sequence (P43351 1-418)

T1 sequence (P27694 whole entry partner, one chain of several): as the sequence (P27694 whole entry) above
T1 sequence (P15927 whole entry partner, one chain of several): as the sequence (P15927 whole entry) above
T1 sequence (P35244 whole entry partner, one chain of several): as the sequence (P35244 whole entry) above

`O=C(O[C@@H]1O[C@@H]2COC(=O)c3cc(O)c(O)c(O)c3-c3c(cc(O)c(O)c3O)C(=O)O[C@H]([C@H]1O)[C@@H]2O)c1cc(O)c(O)c(O)c1` [NP-004255, corilagin] was tested, and the IC50 [1] was 0.5 ± 0.1 µM, the “binding to RPA (WaterLOGSY)” value [2] was “also bound RPA” and the “binding to RAD52 (WaterLOGSY)” value [3] was “physically interacts with RAD52”. For the same molecule, the IC50 [4] was 1.5 ± 0.2 µM, the “effect on the RPA-ssDNA interaction” value [5] was “did not affect the RPA-ssDNA complex” and the “effect on the RAD52-dsDNA interaction” value [6] was “had no effect on the RAD52-dsDNA interaction”.

Reference: paper PMC4982760, “Small-molecule inhibitors identify the RAD52-ssDNA interaction as critical for recovery from replication stress and for survival of BRCA2 deficient cells” (eLife, 2016)
